ChEMBL document CHEMBL1136522, “Redefining the structure-activity relationships of 2,6-methano-3-benzazocines. Part 2: 8-formamidocyclazocine analogues” (Bioorg Med Chem Lett, 2003)

What was measured:
Mu-type opioid receptor [1] = biological target: T1, Mu-type opioid receptor (Cavia porcellus, UniProt P97266); assay: Binding affinity towards Opioid receptor mu 1 using [3H]DAMGO as radioligand
[2] = biological target: Kappa-type opioid receptor (Cavia porcellus, UniProt P41144); assay: Binding affinity was determined towards opioid receptor kappa 1 using [3H]U-69593 as radioligand
Chain of Kappa-type opioid receptor (P41144 whole entry): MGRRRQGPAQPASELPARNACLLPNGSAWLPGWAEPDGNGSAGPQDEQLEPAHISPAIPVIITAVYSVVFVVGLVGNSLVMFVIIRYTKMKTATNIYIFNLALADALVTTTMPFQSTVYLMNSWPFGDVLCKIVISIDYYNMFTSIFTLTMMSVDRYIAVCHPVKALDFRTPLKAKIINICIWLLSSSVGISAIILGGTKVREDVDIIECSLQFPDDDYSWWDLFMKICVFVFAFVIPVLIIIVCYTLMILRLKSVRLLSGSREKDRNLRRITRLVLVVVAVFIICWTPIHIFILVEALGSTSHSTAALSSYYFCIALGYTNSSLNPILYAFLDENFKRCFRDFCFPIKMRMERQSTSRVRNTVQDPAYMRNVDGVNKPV

Mu-type opioid receptor [3] = biological target: T1, Mu-type opioid receptor; assay: Binding affinity was determined towards opioid receptor mu1 using [3H]DAMGO as radioligand
[4] = Binding affinity was determined towards Opioid receptor delta 1 using [3H]naltrindole as radioligand

T1 sequence (P97266 whole entry): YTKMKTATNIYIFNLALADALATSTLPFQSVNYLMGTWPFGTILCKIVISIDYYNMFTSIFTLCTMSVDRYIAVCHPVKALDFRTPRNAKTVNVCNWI

SMILES | Ki (Mu-type opioid receptor [1]) | Ki [2] | Ki (Mu-type opioid receptor [3]) | Ki [4]
C[C@H]1[C@H]2Cc3ccc(Nc4ccccc4)cc3[C@@]1(C)CCN2CC1CC1 | ~1.3 nM | – | – | –
C[C@H]1C2Cc3ccc(N(C)C=O)cc3[C@@]1(C)CCN2CC1CC1 | – | 200 nM | 550 nM | –
O=CNc1ccc2c3c1O[C@H]1C(=O)CC[C@@]4(O)[C@@H](C2)N(CC2CC2)CC[C@]314 | – | 4.2 nM | 8.3 nM | –
CC[C@@]12CCN(CC3CC3)C(C(=O)c3ccc(NC=O)cc31)[C@@H]2C | – | 1.2 nM | 6.1 nM | –
C[C@H]1C2Cc3ccc(NCc4ccccc4)cc3[C@@]1(C)CCN2CC1CC1 | ~1.3 nM | – | – | –
C[C@H]1C2Cc3ccc(NC(=O)c4ccccc4)cc3[C@@]1(C)CCN2CC1CC1 | – | 820 nM | 570 nM | –
C[C@H]1C2Cc3ccc(NC=O)cc3[C@@]1(C)CCN2CC1CC1 | – | 0.85 nM | 1.9 nM | –
CC(=O)Nc1ccc2c(c1)[C@@]1(C)CCN(CC3CC3)C(C2)[C@@H]1C | – | 130 nM | 240 nM | –
NC(=O)c1ccc2c3c1O[C@H]1C(=O)CC[C@@]4(O)[C@@H](C2)N(CC2CC2)CC[C@]314 | – | – | – | 110 nM
C[C@H]1[C@H]2Cc3ccc(NC=O)cc3[C@]1(C)CCN2CC1CC1 | – | 0.49 nM | 1.1 nM | –
C[C@H]1C2Cc3ccc(C(N)=O)cc3[C@@]1(C)CCN2CC1CC1 | – | – | – | 8.3 nM
Nc1ccc2c3c1O[C@H]1C(=O)CC[C@@]4(O)[C@@H](C2)N(CC2CC2)CC[C@]314 | – | 5.8 nM | 5.6 nM | –
CC[C@@]12CCN(CC3CC3)C(C(=O)c3ccc(C(N)=O)cc31)[C@@H]2C | – | – | – | 9.8 nM
C[C@@H]1C2Cc3ccc(NC=O)cc3C1(C)CCN2CC1CC1 (single isomer, unassigned) | – | 900 nM | 2300 nM | –
C[C@H]1[C@H]2Cc3ccc(O)cc3C1(C)CCN2CC1CC1 (single isomer, unassigned) [CYCLAZOCINE] | – | – | – | 1.1 nM
